Where a SMILES comes first, the peptide text is derived from it. The star is where a group is joined. X1 = CC(C)CC(CP(=O)(O)[C@@H](N)CCc1ccccc1)C(=O)*
Key:
[1] = biological target: T1, ERAP1 (Homo sapiens, UniProt Q9NZ08); test: Fluorigenic enzymatic assay: inhibition of ERAP1 hydrolysis of Leu-AMC; format: biochemical
T1 construct: inferred from the nickel-NTA purification; made in house; host or cells: Hi5 insect cells, recombinant baculovirus
Method: Expression and purification of ERAP1 was performed as described previously. Briefly, ERAP1 was expressed in Hi5 insect cells after infection with recombinant baculovirus at 27 °C. Protein was isolated by affinity chromatography using nickel-nitrilotriacetic acid–agarose beads. Protein aliquots were kept at − 80 °C in Hepes/NaCl buffer pH 7.0 supplemented with 10% (v/v) glycerol, until needed.
ERAP1 enzymatic activity and inhibitor IC50 values were calculated as previously reported. Briefly, hydrolysis of the fluorescent substrate leucine-aminomethylcoumarin (Leu-AMC, Sigma–Aldrich, L2145) was followed at 460 nm (excitation at 380 nm) using a Spark 10 M (TECAN) multimode microplate reader. The IC50 of DG080 was calculated by using the equation log (inhibitor) versus response-variable slope of GraphPad Prism 8.0™.

[2] = biological target: T1, ERAP1; test: ERAP1 trimming of MHCI-bound peptide followed by native-PAGE; format: biochemical
[3] = test system: HLA-B*08; details: non-covalently linked peptide, with AI9; cited from earlier work
[4] = biological target: T1, ERAP1; details: cited from earlier work
[5] = biological target: T1, ERAP1; details: cited from earlier work; remark: listed apart in the source
[6] = biological target: HLA-B*08:01 (Homo sapiens, UniProt P01889, A93T/A95T/D138N/E176V/E187T/K202T/Q94N/R180D/S35A/V36M/Y33D/Y91F); details: cited from earlier work
[7] = test system: HLA-B*08; test: Kinetic stability of complex by competition with SYPRO Orange (peptide dissociation); format: binding; details: 37 °C, 8 μM complex, 50X SYPRO Orange dye (4 μL in 20 μL), excitation 533 nm, emission 572 nm, non-covalent complex, each data point average of two repetitions
Method: (§1) The assay was performed in the Lightcycler 96 RT-PCR instrument as previously reported. Reaction mixtures (total volume 20 μL) consisted of 16 μL protein complex (final concentration 8 μΜ) and 4 μL of 50X SYPRO Orange dye (Sigma–Aldrich, S5692). Excitation wavelength was set at 533 nm and emission at 572 nm. The temperature was set at 37 °C for the duration of the experiment.

[8] = biological target: HLA-B*08:01(E76C) (Homo sapiens, UniProt P01889, A93T/A95T/D138N/E176V/E187T/K202T/Q94N/R180D/S35A/V36M/Y33D/Y91F); test: Thermal shift assay (DSF), melting temperature of HLA-B*08(E76C)/peptide complex; format: physicochemical; details: purified complex, Fig. 1F three repetitions shown
Method: The assay as well as the calculation of the melting temperature (Tm) of the complexes HLA-B*08:01(E76C)-DG080 and HLA-B*08:01(E76C)-AI12Cys were performed as previously reported.

[9] = biological target: T2, HLA-B*08(E76C) (Homo sapiens, UniProt P01889, A93T/A95T/D138N/E100C/E176V/E187T/K202T/Q94N/R180D/S35A/V36M/Y33D/Y91F); test: Kinetic stability of complex by competition with SYPRO Orange (peptide dissociation); format: binding; details: 37 °C
T2 construct: made in house
Method: as §1

[10] = biological target: T2, HLA-B*08(E76C); test: Peptide exchange with excess 9mer […] (AI9), native-PAGE; format: binding
Method: Separating gel was prepared by mixing 2.9 mL Tris–HCl 0.375 M pH 8.8 solution, 2 mL acrylamide solution 30%, 100 μL APS 10% w/v and 5 μL TEMED. Stacking gel was formed by mixing 2.14 mL Tris–HCl 0.375 M pH 8.8 solution, 0.34 mL acrylamide solution 30%, 50 μL APS 10% w/v and 5 μL TEMED. Sample loading buffer was formed by mixing 62.5 mM Tris–HCl pH 6.8 solution, 25% v/v glycerol and 1% v/v bromophenol blue solution. Running buffer consists of 25 mM Tris-base and 192 mM glycine. Electrophoresis is conducted at 4 °C, 100 V for 5 h. 1,5 µg of MHC I-peptide complexes and 3 µg of ERAP1 were used.

[11] = biological target: T1, ERAP1; test: ERAP1 trimming of MHCI-bound peptide followed by MALDI-TOF-MS; format: biochemical; details: 20 nM or 100 nM ERAP1; stopped with TFA; 100 mM DTT added to free peptide
Method: To confirm the above finding we followed the trimming reaction by MALDI-TOF–MS which allows the concurrent detection of several peptide species. HLA-B*08(E76C)- […] was incubated with either 20 nM or 100 nM of ERAP1 and the reaction was stopped by the addition of TFA and flash-frozen. MALDI-TOF–MS analysis was performed as described before, but with the addition of 100 mM DTT to reduce the disulfide linkage to the complex so that the freed peptide can be detected (Fig. 2D).
Detection of peptides bound onto ΗLA-B*08:01 by MALDI-TOF–MS was performed as previously described[17] with the exception that 100 mM DTT was added to 10 μL samples of ΗLA-B*08:01(E76C) protein complexes to break the disulfide bond and allow detection of the peptide.

[12] = biological target: T1, ERAP1; test: ERAP1 ternary complex formation, native-PAGE band shift; format: binding; details: equimolar mixture of ERAP1 and complex
Description: The phosphinic head of the DG080 pseudopeptide should provide it with high affinity for the active site of ERAP1. To validate this assumption, we mixed free DG080 with ERAP1 and followed ERAP1 activity using the small fluorigenic substrate L-Leucine-7-amido-4-methylcoumarin (Leu-AMC)[24]. […] Due to the low amounts of complex available, we performed assays at a fixed concentration of 1 μΜ for both free DG080 and HLA-B*08(E76C)-DG080 complex. At that concentration, free DG080 was able to inhibit almost 90% of ERAP1 activity, consistent with its measured IC50. […] We conclude that although DG080 in solution has full access to the ERAP1 active site, DG080 covalently bound onto HLA-B*08 has very limited access to the active site of ERAP1, possibly due to steric hindrances that limit a proper binding orientation necessary so that the ERAP1 active site can approach the MHCI binding groove. To validate the stability of the HLA-B*08(E76C)-DG080 versus ERAP1 trimming or peptide exchange, we first incubated the complex with 20 nM ERAP1 at 37 °C for 1 h and analyzed the sample by native-PAGE (Fig. 4C). […] To further explore a potential interaction between ERAP1 and the phosphinic N-terminus of the peptide bound onto HLA-B*08, we analyzed an equimolar mixture of ERAP1 with HLA-B*08(E76C)-DG080 by native PAGE (Fig. 4D). […]

[13] = biological target: Endoplasmic Reticulum Aminopeptidase 1 (ERAP1) (UniProt Q9NZ08)
[14] = 20 nM ERAP1, up to 2 h (0–120 min)

CC(C)CC(CP(=O)(O)[C@@H](N)CCc1ccccc1)C(=O)NCC(=O)N[C@@H](CO)C(=O)NCC(=O)N[C@@H](CO)C(=O)NCC(=O)N[C@@H](CO)C(=O)N[C@@H](C)C(=O)N[C@@H](C)C(=O)N[C@@H](CCCCN)C(=O)N[C@@H](CCCCN)C(=O)N[C@@H](CCCCN)C(=O)N[C@@H](Cc1ccc(O)cc1)C(=O)N[C@@H](CS)C(=O)N[C@@H](CC(C)C)C(=O)O (stereo partly shown) [DG080] (X1-GSGSGSAAKKKYCL-OH)
inhibition at 1 µM ([1]; free peptide, 1 μM, Leu-AMC hydrolysis, two measurements): ~90% | IC50 ([1]; free peptide, substrate Leu-AMC, excitation 380 nm, emission 460 nm, log(inhibitor) vs response-variable slope, each point average of two measurements): 350 ± 89 nM

ARAALRSRYWAI [listing 1 of 2 here]
ERAP1 trimming: change in electrophoretic mobility (native-PAGE) [2, 14]: ERAP1 was able to modify the electrophoretic mobility | peptide exchange (native-PAGE) [3]: similarly to the non-covalently linked AI12 peptide | ERAP1 trimming half-life, MHCI-bound peptide (native-PAGE) [4]: 18 min | ERAP1 trimming while bound onto HLA-B*08:01 ([4]; non-covalent complex, compared with solution): ERAP1 can apparently trim this peptide while it is bound onto HLA-B*08:01, albeit slower than in solution | ERAP1 trimming half-life, MHCI-bound peptide (MALDI-TOF-MS) [5]: 20 to 30 min | stability of complex with HLA-B*08:01 [6]: thermodynamically stable but kinetically labile complex

ARAALRSRYWAI [listing 2 of 2 here]
half-life of complex (t1/2) [7]: 7 ± 1 min

ARAALRSRYWCI [disulfide-linked HLA-B*08/peptide complex]
melting temperature (Tm) [8]: 44.0 ± 0.5 °C | half-life of complex (t1/2) ([9]; SYPRO Orange competition, 8 μM complex, 50X SYPRO Orange dye (4 μL in 20 μL), excitation 533 nm, emission 572 nm, each data point average of three repetitions): 450 ± 38 min | slowing of dye access to MHC binding groove by covalently linking the peptide ([9]; vs non-covalent HLA-B*08-ARAALRSRYWAI complex): almost 2 orders of magnitude | peptide exchange (native-PAGE) in presence of DTT ([10]; 100 μM ALRSRYWAI + DTT (100 μM in Fig. 2B legend), incubation at RT): full exchange of the ARAALRSRYWCI with ALRSRYWAI | peptide exchange (electrophoretic mobility in native-PAGE) ([10]; excess ALRSRYWAI (100 μM), 60 min at RT, no DTT): did not alter the electrophoretic mobility of the complex in native-PAGE suggesting no peptide exchange | ERAP1 trimming: change in electrophoretic mobility (native-PAGE) [2, 14]: no change in electrophoretic mobility was observed | time-dependent decrease of 12mer peptide on incubation with ERAP1 (MALDI-TOF-MS) [11]: no time-dependent decrease of the 12mer peptide

hFΨ[P(O)(OH)CH2]LGSGSGSAAKKKYCL [HLA-B*08(E76C)-DG080, disulfide-linked HLA-B*08/ phosphinic peptide complex]
peptide exchange (electrophoretic mobility in native-PAGE) ([10]; excess (100 μM) ALRSRYWAI, 37 °C, 1 h): no change in electrophoretic mobility was evident | ERAP1 trimming: change in electrophoretic mobility (native-PAGE) ([2]; 20 nM ERAP1, 37 °C, 1 h): No change in electrophoretic mobility was observed | effect on ERAP1 enzymatic activity ([1]; complex, 1 μM, Leu-AMC hydrolysis, two measurements): unable to fully inactivate ERAP1, and had only a marginal effect on its enzymatic activity | band shift with ERAP1 (stable ternary complex formation) [12]: No band shifts were evident

phosphinic pseudopeptide DG080, hFΨ[P(O)(OH)CH2]…
inhibition of ERAP1 hydrolysis of Leu-AMC by titrated free DG080, IC50 [13]: 350 nM | inhibition of ERAP1 hydrolysis of the fluorigenic substrate at a fixed 1 μΜ of free DG080 [13]: 90%
